B1: BgaC (β-galactosidase) (Niallia circulans; E233G) (protein)
chain: MSQLTYDDSFLLDGKEIRLLSGAMHYFRTVPEYWEDRLLKLKACGFNTVETYVAWNLHEPEEGQFVFEGIADIVRFIKTAEKVGLHVIVRPGPFICAEWEFGGFPYWLLTVPNIKLRCFNQPYLEKVDAYFDVLFERLRPLLSSNGGPIIALQIENEYGSFGNDQKYLQYLRDGIKKRVGNELLFTSDGPEPSMLSGGMIEGIFETVNFGSRAESAFAQLKQYQPNAPLMCMGFWHGWFDHWGEEHHTRSAESVVETLEEILKQNGSVNFYMAHGGTNFGFYNGANHNETDYQPTITSYDYDGLLTESGDVTEKFYAVRKVFEKYVDLPELNLPAPIPKRLFGKVKFTEHAGLLDSLHRISTPQKSEAPLPMEKYGQAYGFIVYETTIKGAYGKQALTVQDIHDRGQVYVNGEYVGIVERNRGCSRLVVELTEEESKLQIIVENMGRINYGPFVVDYKGITEGVRLGNQFLFDWTVYPLPLKDLSSLEFTADEVKENFPYFHKGILTVDKAADTFIDLSEWTKGVVFVNGHHLGRYWEIGPQQTLYVPAPFLQEGENEIILLELHKHHQSVTFVDTPVLGAIPKTP
notes: recombinant, plasmid pETDuet-1, E. coli BL21 (DE3), IMAC purified

Legend:
human galectin-3 (Gal-3) = biological target: T1, human galectin-3 (Gal-3) (Homo sapiens, UniProt P17931); assay: competitive enzyme-linked lectin assay, inhibition of Gal-3 binding to immobilized asialofetuin
T1 construct: gene LGALS3; N-terminal His6-tag (kept, used for detection), expressed in E. coli Rosetta (DE3) pLysS, IMAC purified
T1 sequence (P17931 whole entry): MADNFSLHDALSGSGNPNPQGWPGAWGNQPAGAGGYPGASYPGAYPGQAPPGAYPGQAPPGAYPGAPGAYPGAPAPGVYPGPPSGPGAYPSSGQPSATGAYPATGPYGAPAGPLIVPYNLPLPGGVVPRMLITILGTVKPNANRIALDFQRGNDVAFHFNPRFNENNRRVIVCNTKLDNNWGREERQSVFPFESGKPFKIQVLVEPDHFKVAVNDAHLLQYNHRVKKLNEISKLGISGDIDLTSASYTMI

[1] = substrate: OC[C@H]1O[C@H](F)[C@H](O)[C@@H](O)[C@H]1O; assay: discontinuous HPLC assay, glycosynthase reaction; assay type: biochemical, Niallia circulans; settings: donor substrate, acceptor GalNAc(α1-EG3-azide fixed at 5 mM), 50 mM HEPES pH 7.2, 30 °C, text gives 0.22 mM for the donor, Fig. 2 legend prints 0.22 M and assigns it to panel b (acceptor)

Molecule | IC50 (human galectin-3 (Gal-3)) | Km [1]
CC(=O)N[C@H]1[C@@H](OCCOCCOCCN=[N+]=[N-])O[C@H](CO)[C@H](O)[C@@H]1O[C@@H]1O[C@H](CO)[C@H](O)[C@H](O)[C@H]1O [compound 6, TF-antigen-azide] | 1560 ± 92.6 µM | 
B1 |  | 220 µM
